Measured values published in patent publication US11047004B2, “Thiolated nucleotide analogues for nucleic acid synthesis” (LIFE TECHNOLOGIES CORPORATION, priority 2014, dated 2021).

Legend:
[1] = free amino acid in solution; cited from earlier work
[2] = biological target: Bst polymerase (Geobacillus stearothermophilus, UniProt P52026); experiment: Polymerase extension assay with fluorescein-labeled hairpin oligonucleotide (fluorescence increase on incorporation); assay type: biochemical, Bacillus stearothermophilus; conditions: 2 nM Bst polymerase, 250 nM hairpin oligonucleotide, 37° C., ex 490 nm / em 525 nm; for polymerase incorporation reaction (fluorescence increase), CIP-treated nucleotide solution: nucleotide pre-treated with CIP
From the text: For the polymerase extension assays, a fluorescein-labeled oligonucleotide substrate was designed, and used in an assay to detect nucleotide incorporation. The labeled oligonucleotide is a hairpin-type oligonucleotide with a T-fluorescein residue located at the third position from the 3′ end. The 5′ end of the labeled oligonucleotide is a single stranded sequence 3′-AGGGGGG-5′. Thus, the first nucleotide to be inserted by a polymerase onto the 3′ end of the substrate is a TTP. The 5′ and 3′ ends of the hairpin oligonucleotide is shown below. A fluorescein is attached to the T residue, which is underlined and bolded: • TGC 3′ • […] 5′ (SEQ ID NO:83)
Without wishing to be bound by theory, it is postulated that when the third base from the 3′ end is labeled with a fluorphore (in this case the labeled nucleotide is a T), and when the 3′ terminal base is a cytosine or guanosine, then the fluorphore is in a stacked position with the 3′ terminal base, resulting in quenching the fluorescence from the fluorphore. When a thymidine is incorporated at the terminal 3′ end (e.g., via polymerase-mediated nucleotide incorporation), the fluorphore is un-quenched. This assay can be performed with the hairpin molecule described herein, or with two annealed single-strands that mimic the linear ends of this hairpin molecule.
A solution was prepared in the same buffer as above containing 250 nM of the hairpin oligonucleotide, 16 μM of a short oligonucleotide (5′-CCCCCC-3′, acting as a signal amplifier), and 2 nM of Bst polymerase. […] The plate was equilibrated at 37° C. in a fluorescence microplate reader, and then the dNTP solutions were mixed with the solutions of polymerase and fluorogenic hairpin oligonucleotide. The polymerase catalyzed incorporation reactions were followed by recording the fluorescence intensity changes using 490 nm for excitation and 525 nm for the emission. When a polymerase reaction occurred, an increase in the fluorescence intensity over time was detected (see FIG. 4). There was no change in fluorescence when no nucleotide incorporation reaction occurred (see FIG. 4).

[3] = biological target: calf intestinal phosphatase (CIP) (Bos taurus, UniProt P19111); experiment: Phosphatase resistance: calf intestinal phosphatase (CIP) pre-treatment, then polymerase extension read-out; assay type: biochemical; conditions: 10 u/μL CIP, 37° C., 20 min, read-out by polymerase incorporation fluorescence (FIG. 4)
Protocol: As an example of this resistant, representative results from an exemplary experiment are depicted in FIG. 4. […] Phosphatase-mediated hydrolysis is reflected as a non-increasing level of fluorescence, whereas phosphatase resistance is reflected as an increase in normalized fluorescence intensity.
Two solutions were prepared as follows in 20 mM Tris HCl, pH 7.5, 20 mM NaCl, 10 mM MgCl2: (A) 80 μM of TTP, and (B) 200 μM of γ-S-TTP.
To both solution was added 1.5 μL of 10 u/μL of calf intestinal phosphatase (CIP), and the solutions were incubated at 37° C. for 20 min. The phosphatase was then removed by passing the solutions through a 10,000 molecular weight cut-off ultrafiltration membrane. The resulting solutions were then used for the polymerase extension reactions.
A solution was prepared in the same buffer as above containing 250 nM of the hairpin oligonucleotide, 16 μM of a short oligonucleotide (5′-CCCCCC-3′, acting as a signal amplifier), and 2 nM of Bst polymerase. Then 50 μL aliquots of this solution were placed in individual wells of a microtiter plate. In separate wells of the same plate were placed 50 μL aliquots of the CIP-treated solutions from above, as well as identical solutions that had not been treated with CIP. The plate was equilibrated at 37° C. in a fluorescence microplate reader, and then the dNTP solutions were mixed with the solutions of polymerase and fluorogenic hairpin oligonucleotide. The polymerase catalyzed incorporation reactions were followed by recording the fluorescence intensity changes using 490 nm for excitation and 525 nm for the emission. When a polymerase reaction occurred, an increase in the fluorescence intensity over time was detected (see FIG. 4). There was no change in fluorescence when no nucleotide incorporation reaction occurred (see FIG. 4).
A treatment of synthetically prepared γ-S-TTP with CIP can be used to remove any traces of contaminating dTTP that may be present in the preparation of γ-S-TTP.

Chain of calf intestinal phosphatase (CIP) (P19111 20-506 limits assumed): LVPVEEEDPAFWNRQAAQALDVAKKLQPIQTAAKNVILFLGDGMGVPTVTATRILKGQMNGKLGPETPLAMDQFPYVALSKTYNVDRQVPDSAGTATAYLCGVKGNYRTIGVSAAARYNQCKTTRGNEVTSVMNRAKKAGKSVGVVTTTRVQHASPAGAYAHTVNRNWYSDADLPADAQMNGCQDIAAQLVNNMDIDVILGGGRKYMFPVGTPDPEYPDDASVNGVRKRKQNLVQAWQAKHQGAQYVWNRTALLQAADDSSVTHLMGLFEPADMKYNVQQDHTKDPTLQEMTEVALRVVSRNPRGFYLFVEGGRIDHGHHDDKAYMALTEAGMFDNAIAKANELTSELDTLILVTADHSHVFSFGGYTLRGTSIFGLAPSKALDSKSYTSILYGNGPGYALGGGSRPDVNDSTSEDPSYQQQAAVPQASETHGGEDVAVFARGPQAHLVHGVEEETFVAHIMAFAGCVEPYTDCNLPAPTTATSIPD
Chain of Bst polymerase (P52026 other isoform, or with tags, fused parts or gaps with the stated changes): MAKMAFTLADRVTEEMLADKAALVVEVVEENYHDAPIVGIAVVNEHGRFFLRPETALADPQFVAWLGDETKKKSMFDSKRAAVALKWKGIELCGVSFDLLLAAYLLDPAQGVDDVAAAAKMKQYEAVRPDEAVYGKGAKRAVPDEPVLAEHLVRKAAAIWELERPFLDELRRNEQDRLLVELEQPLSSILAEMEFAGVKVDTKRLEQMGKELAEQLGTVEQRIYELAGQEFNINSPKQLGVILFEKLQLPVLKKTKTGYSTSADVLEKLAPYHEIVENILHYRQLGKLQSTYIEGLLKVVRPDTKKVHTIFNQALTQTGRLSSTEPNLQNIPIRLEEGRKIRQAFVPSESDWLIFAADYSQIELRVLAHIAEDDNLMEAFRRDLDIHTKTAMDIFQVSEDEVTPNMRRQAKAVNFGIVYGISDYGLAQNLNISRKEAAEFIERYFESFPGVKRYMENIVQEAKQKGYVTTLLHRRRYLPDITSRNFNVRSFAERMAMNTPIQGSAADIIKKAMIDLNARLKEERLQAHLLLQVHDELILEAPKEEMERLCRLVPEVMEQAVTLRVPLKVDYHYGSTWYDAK

C[C@H](N)C(=O)O [Alanine]
pKa α-carboxylic acid [1]: 2.35

N[C@@H](CC(=O)O)C(=O)O [Aspartic Acid]
pKa α-amino [1]: 9.82

CC[C@H](C)[C@H](N)C(=O)O [Isoleucine]
pKa α-amino [1]: 9.76

N[C@@H](Cc1ccccc1)C(=O)O [Phenylalanine]
pKa α-amino [1]: 9.24 | pKa α-carboxylic acid [1]: 2.58

Cc1cn([C@H]2C[C@H](O)[C@@H](COP(=O)(O)OP(=O)(O)OP(=O)(O)O)O2)c(=O)[nH]c1=O [TTP, thymidinyl-triphosphate, reference compound]
polymerase incorporation reaction (fluorescence increase), CIP-treated nucleotide solution [2]: no incorporation reaction takes place | resistance to degradation by calf intestinal (alkaline) phosphatase [3]: not reflected

CC(C)[C@H](N)C(=O)O [Valine]
pKa α-carboxylic acid [1]: 2.29

Cc1cn([C@H]2C[C@H](O)[C@@H](COP(=O)(O)OP(=O)(O)OP(O)(O)=S)O2)c(=O)[nH]c1=O [γ-S-TTP, γ-S-thymidinyl-triphosphate]
polymerase incorporation reaction (fluorescence increase), non-treated nucleotide solution ([2]; nucleotide not treated with CIP): polymerase reactions can be detected | polymerase incorporation reaction (fluorescence increase), CIP-treated nucleotide solution [2]: polymerase reactions can be detected | resistance to degradation by calf intestinal (alkaline) phosphatase [3]: resistant to the alkaline phosphatase activity | resistance to degradation by calf intestinal (alkaline) phosphatase ([3]; listed as gamma STTP): showed a resistance to phosphatase
